“Also recorded” adds a separate entry of the source. Where a name gives a salt, the structure may show the parent alone.
Legend:
[1] = biological target: T1, GST-cGB-PDE5 fusion protein (Homo sapiens, UniProt O76074); test: cGMP binding assay with GST-cGB-PDE5 fusion protein; settings: 3H-cGMP 2 μM, 22° C., 1 hour
T1 construct: made in house; host or cells: E. coli BL21 (DE3)
From the text: RT-PCR method is used to obtain the cGB domain of PDE5 with forward and reverse primers designed from bovine PDE5A cDNA sequence (McAllister-Lucas L. M et al, J. Biol. Chem. 268, 22863-22873, 1993) and the selection among PDE 1-10 families. 5′-3′, Inc. kits for total RNA followed by oligo (dT) column purification of mRNA are used with HT-29 cells. […] It is then cloned into pGEX-5X-3 glutathione-S-transferase (GST) fusion vector (Pharmacia Biotech )with tac promoter, and EcoRI and XhoI cut sites. The fusion vector is then transfected into E. Coli BL21 (DE3) bacteria (Invitrogen). The transfected BL21 bacteria is grown to log phase, and then IPTG is added as an inducer. The induction is carried at 20° C. for 24 hrs. The bacteria are harvested and lysed. The soluble cell lysate is incubated with GSH conjugated Sepharose 4B (GSH-Sepharose 4B). The GST-cGB-PDE5 fusion protein can bind to the GSH-Sepharose beads, and the other proteins are washed off from beads with excessive cold PBS.
Then, the mixture is transferred to Brandel MB-24 cell harvester with GF/B as the filter membrane followed by 2 washes with 10 mL of cold 5 mM potassium buffer(pH 6.8). The membranes are then cut out and transferred to scintillation vials followed by the addition of 1 mL of H2O and 6 mL of Ready Safe™ liquid scintillation cocktail to each vial. The vials are counted on a Beckman LS 6500 scintillation counter.
The quenching by filter membrane or other debris are also calibrated.

[2] = 91-day long-term safety assessment study in rats; type: in vivo
From the text: These changes were not associated with any gross clinical abnormality.

U937 cells = test: apoptosis induction of U937 cells (active caspase 3 immunofluorescence); type: cell-based; settings: 1 μM, 24 hours, hydrochloride
Procedure: The U937 monocyte cell line was derived from a histocytic lymphoma and can be driven to differentiate into an ‘activated macrophage like’ state by treatment with 5nM phorbal ester (TPA). Treated U937 cells become adherent, increase their cytoplasmic volume and express macrophage-specific cell surface markers. The presence and level of PDE2 and 5 mRNA in both differentiated and non-differentiated U937 cells was confirmed by performing RT-PCR experiments on total RNA.
U937 cells (from ATCC Rockville, Md.) were grown in RPMI media supplemented with 5% FCS, glutamine, antibiotic/antimycotic and sodium pyruvate. Total RNA was isolated from two U937 cultures, one treated with 5nM TPA for 48 hours and one grown in normal media as listed above, using the Rouche High Pure RNA Isolation Kit (cat# 1 828 665) as per manufacturers protocol. cDNA was then synthesized from the total RNA using GibcoBRL Superscriptll (Cat # 18064-022) reverse transcriptase as per manufacturers protocol. The resulting cDNA was used as a template for RT-PCR reactions using primer sets specific for PDE2 (forward: […], reverse: […]) or PDE5 (forward: […], reverse: […]). mRNA for PDE2 and 5 were both present in the untreated U937 cells. Upon treatment with TPA, the relative amounts of PDE2 mRNA increased 5 fold. Therefore, U937 cells treated with TPA and driven to differentiate into an activated macrophage like state have elevated levels of PDE2 mRNA (see FIG. 1).
The presence of PDE2 and PDE5 protein within U937 cells was confirmed by indirect immunofluorescence (IIF). U937 cells were cultured as above. Two U937 cultures, one grown in the presence of 5 nM TPA for 48 hours and one grown in normal media were processed. All cultures were collected by centrifugation (Shandon Cytospin, 2 minutes @ 600 rpm) onto poly-L lysine-coated slides and immediately fixed in fresh 3% paraformaldehyde buffered in PBS for 10 minutes. Adherent cultures were grown on coverslips and fixed as above. […]
The level of apoptosis in U937 cells was quantified by scoring 500 consecutive cells for the presence of active caspase 3. […]

CC1=C(CC(=O)NCc2ccccc2)c2cc(F)ccc2/C1=C\c1ccncc1 [Example 38, (Z)-5-fluoro-2-methyl-(4-pyridylidene)-3-(N-benzyl)indenylacetamide hydrochloride]
competition with cGMP in binding to the cGMP binding sites of GST-cGB-PDE5 [1]: does not bind to the cGMP-binding site of PDE5
clinical biochemistry and hematology ([2]; 91 days): no changes in clinical biochemistry and hematology were evident
microscopic finding, follicular cells ([2]; 91 days, 500 mg/kg/day): follicular cell hypertrophy
microscopic finding, kidneys ([2]; 91 days, 200 and 500 mg/kg/day): increase in accumulation of hyalin droplets in the kidneys
microscopic finding, liver ([2]; 91 days, 200 and 500 mg/kg/day): slight hepatocellular hypertrophy
liver and thyroid/parathyroid weights ([2]; 91 days, males and females at 200 and 500 mg/kg/day): dose-related trend to increased liver and thyroid/parathyroid weights
toxicological effects overall ([2]; oral, 91 consecutive days, 50, 200 and 500 mg/kg/day): did not produce any major toxicological effects
induction of apoptosis (active caspase 3) (U937 cells): undergoing apoptosis as reflected by the presence of active caspase 3; also recorded: causes the induction of apoptosis in the differentiated and non-differentiated U937 cell line
